# Measurements from PubChem BioAssay (NCI).
# Where “and” joins values, the source holds several entries; their conditions need not be identical. Equal values may be shown once.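 Each compound was tested at five concentrations against cells in 96-well plates for 48 hours. The concentration for 50% growth inhibition is given as GI50. TGI: concentration producing complete growth inhibition.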
# How the values were obtained:
# Assay in all cases: growth of human tumour cells (NCI), 48 h
# DU-145 prostate = system: DU-145 prostate
# HOP-92 NSCLC = system: HOP-92 NSCLC
# K-562 leukemia = system: K-562 leukemia
# LOX IMVI melanoma = system: LOX IMVI melanoma
# M14 melanoma = system: M14 melanoma
# MDA-MB-435 = system: MDA-MB-435
# NCI-H522 lung = system: NCI-H522 lung
# RPMI-8226 leukemia = system: RPMI-8226 leukemia
# U251 CNS = system: U251 CNS
# UACC-62 melanoma = system: UACC-62 melanoma
SMILES,GI50 (DU-145 prostate),TGI (DU-145 prostate),GI50 (HOP-92 NSCLC),TGI (HOP-92 NSCLC),GI50 (K-562 leukemia),TGI (K-562 leukemia),GI50 (LOX IMVI melanoma),TGI (LOX IMVI melanoma),GI50 (M14 melanoma),TGI (M14 melanoma),GI50 (MDA-MB-435),TGI (MDA-MB-435),GI50 (NCI-H522 lung),TGI (NCI-H522 lung),GI50 (RPMI-8226 leukemia),TGI (RPMI-8226 leukemia),GI50 (U251 CNS),TGI (U251 CNS),GI50 (UACC-62 melanoma),TGI (UACC-62 melanoma)
O=c1c(-c2ccccc2)coc2cc(OC/C(=N/O)c3ccc(F)cc3)ccc12,17.4 µM,36 µM,18.8 µM,44.9 µM,16.2 µM,> 100 µM,44100 nM,> 100 µM,17500 nM,41.3 µM,20.9 µM,97.7 µM,14500 nM,46 µM,18.8 µM,59.7 µM,18.2 µM,36.8 µM,15800 nM,31.8 µM
CN(c1ccc(C#N)c(Cl)c1)C1CCC(NC(=O)c2ccc(N3CCN(C4CN(c5ccc6c(c5)C(=O)N(C5CCC(=O)NC5=O)C6=O)C4)CC3)cc2)CC1 (stereo unspecified),> 100 µM,> 100 µM,10.2 µM,99.8 µM,> 100 µM,> 100 µM,> 100000 nM,> 100 µM,21700 nM,64.3 µM,> 100 µM,> 100 µM,> 100000 nM,> 100 µM,> 100 µM,> 100 µM,61.2 µM,> 100 µM,> 100000 nM,> 100 µM
CC1(C)CC2=C(Sc3ccccc3N2)C(=O)C1C(=O)C(=O)Nc1cc(Cl)ccc1Cl (stereo unspecified),–,> 100 µM,–,> 100 µM,–,> 100 µM,–,> 100 µM,–,> 100 µM,–,> 100 µM,–,> 100 µM,–,> 100 µM,–,> 100 µM,–,> 100 µM
CCN(CC)C(=S)SSC(=S)N(CC)CC,24.5 µM and 31.7 µM,> 59.8 µM and 133 µM,15 µM and 40.4 µM,38.4 µM and 133 µM,25.2 µM and 19.6 µM,51.5 µM and 47.3 µM,14400 nM and 12800 nM,31.2 µM and 29.9 µM,12100 nM and 12600 nM,28.9 µM and 28.1 µM,15.6 µM and 18.7 µM,43.5 µM and 53.3 µM,11600 nM and 18300 nM,27.9 µM and 38.4 µM,13.6 µM and 15 µM,30.5 µM and 46.6 µM,15.8 µM and 13.7 µM,31 µM and 30.7 µM,15200 nM and 18100 nM,30.4 µM and 44.5 µM
COc1cc(/C=C/[N+](=O)[O-])cc(OC)c1OC,2.69 µM,6.31 µM,2.25 µM,6.52 µM,2.81 µM,> 100 µM,1390 nM,2.91 µM,2070 nM,4.31 µM,2.8 µM,10.2 µM,1790 nM,3.57 µM,3.14 µM,8.59 µM,2.86 µM,10.9 µM,1720 nM,3.49 µM
NNc1c2ccccc2nc2ccccc12,10.9 µM,> 100 µM,5.19 µM,43.6 µM,3.32 µM,64.7 µM,3620 nM,22.4 µM,6110 nM,21.8 µM,5.08 µM,23.4 µM,2590 nM,14.4 µM,0.558 µM,17.4 µM,4.89 µM,40.6 µM,3440 nM,19.3 µM
C[C@H]1c2ccccc2CN1CCCOc1cc2c(cc1OCC1CC1)C1(CCCC1)C(N)=N2,2.66 µM,8.63 µM,0.633 µM,3.54 µM,0.871 µM,2.46 µM,845 nM,1.57 µM,932 nM,1.81 µM,1.67 µM,5.76 µM,1660 nM,6.62 µM,1.01 µM,3.13 µM,1.31 µM,4.08 µM,925 nM,1.93 µM
CCOC1OC(=O)[C@H]2[C@@H]1[C@@H]1CC[C@H]2O1 (stereo partly specified),> 100 µM,> 100 µM,> 100 µM,> 100 µM,> 100 µM,> 100 µM,> 100000 nM,> 100 µM,> 100000 nM,> 100 µM,> 100 µM,> 100 µM,> 100000 nM,> 100 µM,> 29.3 µM,> 100 µM,> 100 µM,> 100 µM,> 100000 nM,> 100 µM
Cn1nnc2c(C(N)=O)ncn2c1=O,–,> 100 µM,–,> 100 µM,–,> 100 µM,–,> 100 µM,–,> 100 µM,–,> 100 µM,–,> 100 µM,–,> 100 µM,–,> 100 µM,–,> 100 µM
Clc1ccccc1NN(Cc1ccncc1)c1ccccc1Cl,–,34.8 µM,–,18.2 µM,–,30.2 µM,–,30.3 µM,–,35.7 µM,–,29.7 µM,–,29.6 µM,–,42.2 µM,–,26.4 µM,–,30.7 µM
CC1=C(Cl)C[C@@H](/C(C)=C\Cl)O[C@@]1(O)C(Br)Br,–,49.9 µM,–,53.2 µM,–,> 100 µM,–,> 100 µM,–,67.7 µM,–,> 100 µM,–,49.3 µM,–,65.8 µM,–,> 100 µM,–,> 100 µM
CN1CCN(c2cc3nc4ccccc4n(-c4ccc(Cl)cc4)c-3cc2=N)CC1,37.8 µM,> 100 µM,28.7 µM,94.8 µM,0.356 µM,23.5 µM,15700 nM,36.6 µM,21400 nM,43.8 µM,17.5 µM,32.6 µM,21500 nM,52.6 µM,12.1 µM,35.1 µM,18.9 µM,49.7 µM,22900 nM,54.8 µM
OCc1ccc(N2CCCC2)cc1Cl,34.4 µM,> 100 µM,2.22 µM,24.2 µM,8.18 µM,> 100 µM,> 86900 nM,> 100 µM,> 100000 nM,> 100 µM,> 100 µM,> 100 µM,14500 nM,32.5 µM,6.22 µM,> 84.5 µM,5.52 µM,> 60.8 µM,879 nM,4.28 µM
Oc1c(Cl)cc(Cl)c2cccnc12,4.51 µM,45.7 µM,2.8 µM,26.3 µM,3.77 µM,> 100 µM,2180 nM,15.7 µM,1960 nM,5.26 µM,3.84 µM,> 100 µM,1830 nM,4.85 µM,4.34 µM,> 100 µM,2.67 µM,55 µM,1790 nM,5.04 µM
CCN(CC)CCCC(C)Nc1c(-c2ccccc2)cnc2cc(Cl)ccc12 (stereo unspecified),13 µM,31.3 µM,4.65 µM,23.7 µM,3.2 µM,32 µM,2200 nM,5.84 µM,1860 nM,3.44 µM,2.24 µM,5.31 µM,7220 nM,19.2 µM,3.49 µM,17.1 µM,6.84 µM,20.5 µM,2370 nM,6.26 µM
O=C(Nc1cnc(C(F)(F)F)cn1)c1cc(Cl)ccc1O,0.348 µM,> 100 µM,0.188 µM,0.621 µM,0.272 µM,> 100 µM,291 nM,1.75 µM,306 nM,2.46 µM,0.318 µM,3.23 µM,178 nM,0.768 µM,0.273 µM,2.75 µM,0.352 µM,> 100 µM,191 nM,1.48 µM
C[C@@H]1COCCN1c1cc(-c2ccnn2C)c2ccnc(-c3ccn[nH]3)c2n1,0.0992 µM and 0.202 µM,> 100 µM,0.0815 µM and 0.175 µM,0.651 µM and 3.08 µM,0.0844 µM and 0.384 µM,> 100 µM,57.2 nM and 118 nM,0.421 µM and 1.51 µM,29.1 nM and 47.1 nM,–,0.0984 µM and 0.199 µM,2.89 µM and 5 µM,172 nM and 528 nM,–,0.177 µM and 0.202 µM,3.01 µM and 5.4 µM,0.26 µM and 1 µM,14.6 µM and > 100 µM,125 nM and 163 nM,0.876 µM and 1.3 µM
Nc1ncccc1-c1nc2ccc(-c3ccccc3)nc2n1-c1ccc(C2(N)CCC2)cc1,2.98 µM,15 µM,0.0644 µM,1.2 µM,1.89 µM,4.5 µM,1370 nM,2.77 µM,1400 nM,2.96 µM,1.35 µM,2.88 µM,1530 nM,3.47 µM,1.74 µM,4.78 µM,0.746 µM,2.31 µM,1370 nM,2.99 µM
C=CCCCOC1[C@H](OCc2ccccc2)C(OCc2ccccc2)C(OC)O[C@@H]1CNC(=O)c1cccc(I)c1 (stereo partly specified),8.52 µM,> 100 µM,5.08 µM,> 100 µM,2.7 µM,> 100 µM,2810 nM,> 100 µM,60200 nM,> 100 µM,5.31 µM,> 100 µM,33000 nM,> 100 µM,2.57 µM,9.19 µM,4.66 µM,> 100 µM,3800 nM,> 100 µM
N#CC(C#N)=C(N)/C(C#N)=C/c1ccc2[nH]ccc2c1,–,> 100 µM,–,> 100 µM,–,> 100 µM,–,> 100 µM,–,> 100 µM,–,> 100 µM,–,> 100 µM,–,> 100 µM,–,> 100 µM,–,> 100 µM
Cc1c2ccncc2c(C)c2c1c1cc(CO)ccc1n2C,0.653 µM,6.02 µM,0.636 µM,4.87 µM,0.473 µM,5.82 µM,449 nM,2.1 µM,687 nM,3.27 µM,0.467 µM,3.74 µM,661 nM,3.81 µM,0.425 µM,2.28 µM,0.293 µM,1.94 µM,287 nM,1.76 µM
C=C1CC[C@@H]2[C@](C)(COC(C)=O)[C@H](OC(C)=O)CC[C@@]2(C)[C@@H]1CC(Nc1ccc(S(=O)(=O)Nc2nccs2)cc1)C1=CCOC1=O (stereo partly specified),4.47 µM,15.8 µM,12.4 µM,25.3 µM,3.6 µM,29 µM,1590 nM,3.31 µM,2830 nM,10.5 µM,3.29 µM,12.7 µM,1720 nM,4.32 µM,2.49 µM,7.62 µM,1.86 µM,3.5 µM,1760 nM,4.42 µM
NS(=O)(=O)c1cccc(-c2ccc3c(NC(=O)C4CC4)n[nH]c3c2)c1,14.7 µM,> 25 µM,> 25 µM,> 25 µM,8.38 µM,> 25 µM,19400 nM,> 25 µM,12300 nM,> 25 µM,5.31 µM,15.3 µM,5320 nM,> 19 µM,> 25 µM,> 25 µM,12.8 µM,> 25 µM,15700 nM,> 25 µM
Nc1n[nH]c(N)c1N=Nc1ccc(O)cc1,17 µM,62.5 µM,18.2 µM,67.8 µM,9.17 µM,> 100 µM,4090 nM,53.6 µM,15900 nM,> 100 µM,17.1 µM,59.4 µM,24300 nM,> 100 µM,14.4 µM,54.3 µM,21.2 µM,86.2 µM,11000 nM,36.4 µM
CC1=C(C(=O)Nc2ccc(F)c(Cl)c2)C(c2ccccc2O)NC(=O)N1 (stereo unspecified),> 100 µM,> 100 µM,81.6 µM,> 100 µM,58.1 µM,> 100 µM,80500 nM,> 100 µM,69900 nM,> 100 µM,> 100 µM,> 100 µM,61900 nM,> 100 µM,46.1 µM,> 100 µM,> 100 µM,> 100 µM,49000 nM,> 100 µM
Nc1n[nH]c2ccc([C@@H]3Nc4cc5[nH]ncc5cc4[C@H]4C5CCC(C5)[C@@H]34)cc12 (stereo partly specified),0.391 µM,> 100 µM,4.59 µM,> 46.2 µM,0.315 µM,> 100 µM,659 nM,74.8 µM,294 nM,> 100 µM,0.3 µM,6.85 µM,396 nM,> 45.6 µM,0.354 µM,12.6 µM,0.43 µM,> 58 µM,272 nM,17.4 µM
COc1cccc(C2C(C#N)=C(N)Oc3c2ccc2ccccc32)c1 (stereo unspecified),0.034 µM,1.43 µM,< 0.0271 µM,7.78 µM,< 0.01 µM,> 44 µM,< 16.4 nM,10.8 µM,< 12 nM,13.3 µM,< 0.01 µM,–,< 10 nM,–,< 0.019 µM,3.22 µM,0.0213 µM,11.1 µM,< 10 nM,19.8 µM
